Structures can show the parent of a compound that is named as a salt. Where two headings read alike, the source gives them in different places.
Assays:
[1] = Pharmacokinetic study of oral vs intra-cecal administration of tacrolimus (Example 13); format: in vivo, Yorkshire-Cross farm swine; conditions: female, Yorkshire-Cross
Source text: (§1) No further randomization procedure was employed.

[2] = Tissue, plasma and GI content pharmacokinetics of tacrolimus, oral vs intra-cecal ingestible device delivery (Example 10); format: in vivo, Yorkshire-Cross farm swine; conditions: female, Yorkshire-Cross, pig
Experimental: The primary objective of this study was to compare the tissue, plasma, rectal sample, and GI content pharmacokinetics of tacrolimus through oral versus intra-cecal ingestible device delivery in normal Yorkshire-Cross farm swine.
as §1
Animals in Group 1 received an ingestible device containing 0.8 mL of vehicle solution (80% alcohol, 20% HCO-60). Animals in Group 2 received orally […] liquid formulation of tacrolimus at 4 mg/0.8 mL per animal (Prograf: 5 mg/mL). Animals in Group 3 received intra-cecally an ingestible device containing tacrolimus at 1 mg in 0.8 mL per ingestible device. Animals in Group 4 received intra-cecally an ingestible device containing tacrolimus at 2 mg in 0.8 mL per ingestible device. Animals in Group 5 received intra-cecally an ingestible device containing tacrolimus at 4 mg in 0.8 mL per ingestible device. To control for potential confounding effects of the surgery, all groups fast on Day −11 at least 24 hr before being subjected to anesthesia followed by surgical placements of a cecal port by a veterinary surgeon at Day −10. All animals were fasted for at least 12 hr prior to dosing on Day 1. Animals were dosed via either intra-cecal dosing (IC) or oral dosing (PO) at Day 1 (between […].). […]
Approximately 200˜400 mg of rectal content were collected, if available, with a fecal swab (Copan Diagnostics Nylon Flocked Dry Swabs, 502CS01). The fecal swab was pre-weighed and weighed after collection in the collection tube (Sterile Tube and Cap No Media, PFPM913S), and the sample weight was recorded. […]
For tissue necropsy, small intestine fluid and cecal fluid were collected separately from all the animals into two separate square plastic bottles, and stored at −20° C. The length and diameter of the cecum and the colon was measured from one animal in each group and recorded for reference. […] All samples were weighed, and the tissue sample weights were recorded. […] Around 3 grams of the total punched sample were collected into a pre-weighed 15-mL conical tube, and the tissue weight was recorded. […]

[3] = tested on: cytokines involved in the JAK/STAT signaling pathway; conditions: PO or IC administration; 1 h and 3 h post-treatment

Row | SMILES | Cmax ([1]; pig, blood, Route PO, Dosage 0.09 mg/kg) [ng/mL] | AUC(0-t) ([1]; pig, in vivo, po, 0.09 mg/kg) [ng·h/mL] | Ratio Tissue(mean) (ng/g)/Trough(12 hr)(ng/mL) ([1]; pig, in vivo, po, 0.09 mg/kg) | Ratio Tissue(mean) (ng/g)/Trough(12 hr)(ng/mL) ([1]; swine, in vivo, po, 0.09 mg/kg) | Cmax ([2]; in vivo, 0.09 mg/kg, Route PO, Dose (mg · kg) 0.09) [ng/mL] | concentration at 12 h ([2]; in vivo, po, Trough (12 hr)) [ng/mL] | concentration at 12 h ([2]; whole blood, other: oral and intra-cecal (all groups), all groups (FIGS. 87-89 and Table 29), read-out: blood trough concentrations) [ng/mL] | IL-6 expression in plasma [3]
1 | C=CC[C@@H]1/C=C(\C)C[C@H](C)C[C@H](OC)[C@H]2O[C@@](O)(C(=O)C(=O)N3CCCC[C@H]3C(=O)O[C@H](/C(C)=C/[C@@H]3CC[C@@H](O)[C@H](OC)C3)[C@H](C)[C@@H](O)CC1=O)[C@H](C)C[C@@H]2OC [tacrolimus] | 3.53 ± 3.84 | 16.8 ± 3.64 | 0 | 0 | 3.53 ± 3.84 | 9.57 ± 0.291 | < 10 | 
2 | C[C@@H]1CCN(C(=O)CC#N)C[C@@H]1N(C)c1ncnc2[nH]ccc12 [tofacitinib citrate] |  |  |  |  |  |  |  | inhibition of IL-6 expression was observed

Source: patent publication US20210363233A1, “TREATMENT OF A DISEASE OF THE GASTROINTESTINAL TRACT WITH AN IL-12/IL-23 INHIBITOR” (Progenity, Inc., priority 2018, published 2021)
